Legend:
[1] = tested on: SE-spezifischen IgM- und IgG-PBZ; experiment: Plaque test after damage of the immune system by cyclophosphamide (immunorestoration); format: in vivo, CBA-Inzuchtmäuse; settings: ZY 150 mg/kg day -1 + 2 mg/kg oral days -2 to +2
From the text: Der Nachweis von immunrestaurativen Wirkungen erfolgte nach Schädigung des Immunsystems ebenfalls mittels • Plaque-Test zum Nachweis von SE-spezifischen IgM- und IgG-PBZ sowie durch • Rosettentest.
Aus den Werten wird deutlich, daß die Verbindungen der allgemeinen Formel I einen gut nachweisbaren Effekt auf die Effektor-T-Lymphozyten-abhängige verzögerte Uberempfindlichkeit haben. Kontaktdermatitis-Werte ab 120 (≙ 20 % Steigerung gegenüber der Kontrolle) bzw. unter 80 werden als Nachweis eines stimulatorischen bzw. suppressorischen Effektes angesehen. Antikörpertiter-Differenzen von >+1 bzw. <-1 verdeutlichen den stimulatorischen bzw. suppressorischen Effekt der Substanzen auf die humorale Immunantwort. 2. Untersuchungen zur immunstimulierenden Wirkung • 2.1 Plaque-Test zum Nachweis von SE-spezifischen IgM- und IgG-PBZ Zur Prüfung immunstimulierender Effekte wurde u. a. auch der Einfluß von Verbindungen der allgemeinen Formel I auf die humorale Immunantwort an Mäusen des Inzuchtstammes CBA und mittels Hämolyse-Plaque-Test (HPT) untersucht. Diese Technik erlaubt die quantitative und getrennte Erfassung IgM- und IgG-Antikörper produzierender Zellen (= Plaque bildende Zellen; PBZ). Die Immunisierung mit Schaferythrozyten (SE) erfolgte am Tag 0, die Substanzapplikation (Tagesdosis 1.10^-5 mol/kg Körpermasse; peroral) an den Tagen -1 bis +3 (zur Erfassung der IgM-PBZ) bzw. an den Tagen +1 bis +5 (zur Erfassung der IgG-PBZ). • 2.2 Ergebnisse: Durch tägliche und über 5 Tage gehende Gabe von 2,0 mg der Verbindung gemäß Beispiel 1 pro kg Körpermasse konnte die Zahl der IgM-PBZ auf einen Durchschnittswert von 352 % im Vergleich zur Kontrolle (100 %) gesteigert werden. Die gleiche Form der Behandlung führte zu einer Erhöhung der IgG-PBZ auf 497 % (Kontrolle: 100 %). In beiden Fällen erwies sich die Differenz zur Kontrolle im t-Test mit p < 0,001 als signifikant. Es wird deutlich, daß eine über 5 Tage gehende tägliche Behandlung mit der Verbindung gemäß Beispiel 1 bei der CBA-Maus eine hochsignifikante Steigerung SE-spezifischer IgM- und IgG-PBZ hervorruft. • 2.3 Rosettentest (SE-spezifische Rosetten) Nach der BURNET'schen Theorie tragen die Lymphozyten auf ihrer Oberfläche Immunglobulin-Rezeptoren, die gegen ein bestimmtes Antigen gerichtet und durch eine Reaktion mit dem spezifischen Antigen nachweisbar sind. Die Bestimmung der Anzahl an rosettenbildenden Zellen (RBZ) kann als Maß für die Stärke einer anlaufenden Immunreaktion dienen und folgend auch Effekte im Sinne einer Suppression oder Stimulierung zellproliferativer Prozesse wiedergeben. Drei Tage nach der intravenösen Immunisierung mit 2·10^5 Schaferythrozyten (SE) in 0,2 ml physiologischer Kochsalzlösung wurden die Versuchstiere durch Überstrecken getötet, die Milz entnommen und unter Zugabe von Parker-Medium (pH 7,4) durch Müller-Gaze gerieben. Die Arbeiten zur Gewinnung der Zellsuspension wurden im Eiswasserbad (ca 0 bis 4 °C) durchgeführt. In einer Zählkammer nach Neubauer erfolgte die Bestimmung der Zelldichte, und anschließend wurde die für alle Versuchsansätze konstante Zellzahl von 1·10^7 kernhaltigen Zellen (KHZ)/ml Medium eingestellt. 0,9 ml der Milzzellsuspension (1·10^7 KHZ/ml) wurden dann mit 0,1 ml einer 5 %igen gewaschenen Schaferythrozytensuspension versetzt und 24 Stunden bei 4 °C inkubiert. […] 3. Untersuchungen zu immunrestaurativen Effekten 3.1 Der Nachweis der immunrestaurativen Wirksamkeit von Verbindungen der allgemeinen Formel I wurde u. a. dadurch geführt,daß das Immunsystem der Versuchstiere (CBA-Inzuchtmäuse) durch Chemotherapie (Zyklophosphamid, Carageenan, Iloprost) bzw. Bestrahlung geschädigt wurde. Die Prüfung erfolgte u. a. mittels folgender oben erläuterter Techniken: • Plaque-Test zum Nachweis von SE-spezifischen IgM- und IgG-PBZ, • Rosettentest. […]

[2] = tested on: SE-spezifischer rosettenbildender Zellen; experiment: Rosette test (SE-specific rosettes); format: in vivo, Maus (Inzuchtstamm CBA); settings: oral administration
From the text: Der Nachweis immunstimulierender Effekte wurde weiterhin an der Maus (Inzuchtstamm CBA) und u. a. mit Hilfe folgender Nachweismethoden geführt: • Plaque-Test zum Nachweis von SE-spezifischen IgM- und IgG-PBZ, • Rosettentest.
Aus den Werten wird deutlich, daß die Verbindungen der allgemeinen Formel I einen gut nachweisbaren Effekt auf die Effektor-T-Lymphozyten-abhängige verzögerte Uberempfindlichkeit haben. Kontaktdermatitis-Werte ab 120 (≙ 20 % Steigerung gegenüber der Kontrolle) bzw. unter 80 werden als Nachweis eines stimulatorischen bzw. suppressorischen Effektes angesehen. Antikörpertiter-Differenzen von >+1 bzw. <-1 verdeutlichen den stimulatorischen bzw. suppressorischen Effekt der Substanzen auf die humorale Immunantwort. 2. Untersuchungen zur immunstimulierenden Wirkung • 2.1 Plaque-Test zum Nachweis von SE-spezifischen IgM- und IgG-PBZ Zur Prüfung immunstimulierender Effekte wurde u. a. auch der Einfluß von Verbindungen der allgemeinen Formel I auf die humorale Immunantwort an Mäusen des Inzuchtstammes CBA und mittels Hämolyse-Plaque-Test (HPT) untersucht. Diese Technik erlaubt die quantitative und getrennte Erfassung IgM- und IgG-Antikörper produzierender Zellen (= Plaque bildende Zellen; PBZ). Die Immunisierung mit Schaferythrozyten (SE) erfolgte am Tag 0, die Substanzapplikation (Tagesdosis 1.10^-5 mol/kg Körpermasse; peroral) an den Tagen -1 bis +3 (zur Erfassung der IgM-PBZ) bzw. an den Tagen +1 bis +5 (zur Erfassung der IgG-PBZ). • 2.2 Ergebnisse: Durch tägliche und über 5 Tage gehende Gabe von 2,0 mg der Verbindung gemäß Beispiel 1 pro kg Körpermasse konnte die Zahl der IgM-PBZ auf einen Durchschnittswert von 352 % im Vergleich zur Kontrolle (100 %) gesteigert werden. Die gleiche Form der Behandlung führte zu einer Erhöhung der IgG-PBZ auf 497 % (Kontrolle: 100 %). In beiden Fällen erwies sich die Differenz zur Kontrolle im t-Test mit p < 0,001 als signifikant. […]

Which results are given for `O=c1[nH]c2ccccc2c(=O)n1CCS` [Beispiel 1, 3-(2-Mercaptoethyl)-chinazolin-2,4(1H,3H)-dion]?
IgM-PBZ/10^6 ([1]; test day + 3): 31,7 ± 26,6 /10^6; IgM-PBZ/10^6 ([1]; test day + 4): 59,8 ± 26,6 /10^6; IgM-PBZ/10^6 ([1]; test day + 5, p <0,05): 125,2 ± 32,7 /10^6; IgM-PBZ/10^6 ([1]; test day + 6): 47,8 ± 31,2 /10^6; IgG-PBZ/10^6 Milzzellen ([1]; test day + 6, p <0,05): 88,3 ± 24,8 /10^6 Milzzellen; IgG-PBZ/10^6 Milzzellen ([1]; test day + 7, p <0,01): 128,3 ± 28,6 /10^6 Milzzellen; IgG-PBZ/10^6 Milzzellen ([1]; test day + 8): 58,3 ± 43,6 /10^6 Milzzellen

How did the “SE-spezifischer rosettenbildender Zellen” value [2] turn out when `COc1cc2[nH]c(=O)n(CCCS)c(=O)c2cc1OC` [Beispiel 2, 3-(3-Mercaptoprop-1-yl)-6,7-dimethoxychinazolin-2,4(1H,3H)-dion] was run?
Its value is “signifikante Förderung”.
